Earlier results on 1 molecule are cited in patent US11059901B2, “Compositions and methods related to xCT antibodies” (AGIL VAX, INC., priority 2017, dated 2021).

In one data set the target is T1, xCT (Homo sapiens, UniProt Q9UPY5).
T1 sequence (Q9UPY5 1-501): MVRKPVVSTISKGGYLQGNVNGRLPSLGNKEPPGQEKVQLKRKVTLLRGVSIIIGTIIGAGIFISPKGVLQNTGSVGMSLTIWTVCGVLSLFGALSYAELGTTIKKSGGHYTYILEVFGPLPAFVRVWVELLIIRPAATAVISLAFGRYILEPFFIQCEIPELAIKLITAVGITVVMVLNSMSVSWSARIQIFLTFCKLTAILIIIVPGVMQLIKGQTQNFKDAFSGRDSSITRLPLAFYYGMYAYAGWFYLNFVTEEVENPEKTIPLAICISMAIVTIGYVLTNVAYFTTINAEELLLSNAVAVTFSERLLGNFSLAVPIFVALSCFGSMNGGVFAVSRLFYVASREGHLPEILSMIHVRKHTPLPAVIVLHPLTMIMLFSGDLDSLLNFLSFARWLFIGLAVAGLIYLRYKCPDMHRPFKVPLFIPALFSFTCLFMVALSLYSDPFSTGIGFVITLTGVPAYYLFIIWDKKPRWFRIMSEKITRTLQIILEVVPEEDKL
T1 sequence (P08195 1-529 partner): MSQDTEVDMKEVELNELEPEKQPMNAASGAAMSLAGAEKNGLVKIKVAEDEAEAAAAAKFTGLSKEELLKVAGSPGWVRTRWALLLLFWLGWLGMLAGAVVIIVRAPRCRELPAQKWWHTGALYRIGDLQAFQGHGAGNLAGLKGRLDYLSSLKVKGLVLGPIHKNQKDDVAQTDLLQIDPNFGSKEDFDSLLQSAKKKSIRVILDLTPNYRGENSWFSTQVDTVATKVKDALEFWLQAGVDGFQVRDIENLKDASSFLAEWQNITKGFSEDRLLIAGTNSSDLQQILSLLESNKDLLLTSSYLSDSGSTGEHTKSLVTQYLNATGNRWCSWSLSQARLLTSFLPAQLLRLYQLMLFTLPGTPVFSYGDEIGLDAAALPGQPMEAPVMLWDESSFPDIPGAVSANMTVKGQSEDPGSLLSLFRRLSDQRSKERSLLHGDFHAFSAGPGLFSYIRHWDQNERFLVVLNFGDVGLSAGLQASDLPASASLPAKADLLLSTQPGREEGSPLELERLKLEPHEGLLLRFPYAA

For data set [1] the following is noted: under physiological conditions.

Turning to `O=C(O)c1cc(/N=N/c2ccc(S(=O)(=O)Nc3ccccn3)cc2)ccc1O` [SASP, sulfasalazine], the metastatic foci entry on xCT (animal models of breast cancer metastasis) was “significant decreases”. Also, at xCT (in vivo), the “frequency of CSC” value is given as “reductions”. In addition, in data set [1], the solubility entry was “insoluble” and the stability entry is “labile”.
